Assay results from the CheMixHub drug solubility set.

Assay: xn = mol fraction of the nth substance listed, in the solute-free solvent

CC1CCC2C(C)C(OC(=O)CCC(=O)O)OC3OC4(C)CCC1C32OO4 (stereo unspecified) + CC(O)CO + O
solubility (g/100 g solution)
Conditions	278.15 K	283.15 K	288.15 K	293.15 K	298.15 K	303.15 K	308.15 K	313.15 K	318.15 K
x2 = 0.02567	0.0421	0.056	0.0717	0.092	0.114	0.145	0.181	0.223	0.275
x2 = 0.05599	0.0843	0.11	0.139	0.176	0.215	0.27	0.333	0.404	0.492
x2 = 0.0921	0.155	0.201	0.25	0.313	0.377	0.466	0.568	0.682	0.819
x2 = 0.1363	0.259	0.33	0.408	0.503	0.606	0.737	0.888	1.05	1.25
x2 = 0.1915	0.384	0.484	0.593	0.724	0.853	1.03	1.23	1.45	1.71
x2 = 0.2622	0.501	0.635	0.77	0.932	1.1	1.3	1.55	1.81	2.09
x2 = 0.3554	0.579	0.73	0.88	1.06	1.24	1.46	1.72	2	2.3
x2 = 0.4866	0.602	0.746	0.906	1.08	1.27	1.48	1.75	2.01	2.31
x2 = 0.6826	0.571	0.704	0.845	1.02	1.19	1.38	1.62	1.86	2.12

Cc1c(Br)c(=O)n(C2CCCC2)c2nc(Cl)ncc12 + C1CCOC1 + CCO
solubility (g/100 g solution)
Conditions	278.15 K	283.15 K	288.15 K	293.15 K	298.15 K	303.15 K	308.15 K	313.15 K	318.15 K	323.15 K
x2 = 0.1	0.59	0.723	0.88	1.07	1.28	1.53	1.82	2.14	2.52	2.94
x2 = 0.2	1.06	1.25	1.51	1.81	2.16	2.56	3.01	3.52	4.1	4.74
x2 = 0.3	1.49	1.8	2.16	2.58	3.05	3.6	4.21	4.9	5.66	6.51
x2 = 0.4	1.9	2.29	2.74	3.26	3.84	4.51	5.26	6.1	7.04	8.07
x2 = 0.5	2.25	2.71	3.34	3.83	4.52	5.29	6.16	7.13	8.2	9.38
x2 = 0.6	2.56	3.07	3.67	4.35	5.12	5.99	6.96	8.04	9.23	10.5
x2 = 0.7	2.85	3.42	4.08	4.83	5.68	6.64	7.71	8.9	10.2	11.7
x2 = 0.8	3.12	3.75	4.47	5.29	6.22	7.27	8.44	9.73	11.2	12.7
x2 = 0.9	3.34	4.01	4.79	5.67	6.67	7.79	9.04	10.4	11.9	13.6
